The values that follow come from ChEMBL document CHEMBL3232938, “Design, synthesis, and biological evaluation of dihydroartemisinin-fluoroquinolone conjugates as a novel type of potential antitubercular agents” (2014).

Converted amounts (≈) assume the structure as drawn.

Type in all cases: functional
Assay [1] concerns Mycobacterium tuberculosis. The assay can be described thus: Antibacterial activity against 0.5 ug/ml Mycobacterium tuberculosis H37Rv ATCC 27294 assessed as growth inhibition after 7 days by microtiter plate assay. Particulars: H37Rv ATCC 27294, 168 h.
Assay [2] deals with Escherichia coli. The assay can be described thus: Antibacterial activity against duck Escherichia coli assessed as zone of inhibition at 2 ug/ml. Particulars: read-out: DIZ.
The subject of assay [3] is Staphylococcus aureus. As to the kind of experiment: Antibacterial activity against Staphylococcus aureus assessed as growth inhibition after 7 days by microtiter plate assay. The conditions noted are these: 168 h.
Assay [4] deals with Salmonella. As to the kind of experiment: Antibacterial activity against Salmonella assessed as growth inhibition after 7 days by microtiter plate assay. Particulars: 168 h.
Assay [5] has as its system Pseudomonas aeruginosa. As to the kind of experiment: Antibacterial activity against Pseudomonas aeruginosa assessed as growth inhibition after 7 days by microtiter plate assay. Particulars: 168 h.
For assay [6], the system named is Escherichia coli. As to the kind of experiment: Antibacterial activity against Escherichia coli assessed as growth inhibition after 7 days by microtiter plate assay. Particulars: 168 h.
Assay [7] has as its system Salmonella. The assay can be described thus: Antibacterial activity against Salmonella assessed as zone of inhibition at 2 ug/ml. Particulars: read-out: DIZ.
The test system of assay [8] is Escherichia coli. As to the kind of experiment: Antibacterial activity against duck Escherichia coli assessed as growth inhibition after 7 days by microtiter plate assay. The conditions noted are these: 168 h.
The subject of assay [9] is Mycobacterium tuberculosis. As to the kind of experiment: Antibacterial activity against 1 ug/ml Mycobacterium tuberculosis H37Rv ATCC 27294 assessed as growth inhibition after 7 days by microtiter plate assay. The conditions noted are these: H37Rv ATCC 27294, 168 h.
The subject of assay [10] is Staphylococcus aureus. As to the kind of experiment: Antibacterial activity against Staphylococcus aureus assessed as zone of inhibition at 2 ug/ml. The conditions noted are these: read-out: DIZ.
Assay [11] has as its system Escherichia coli. As to the kind of experiment: Antibacterial activity against Escherichia coli assessed as zone of inhibition at 2 ug/ml. Particulars: read-out: DIZ.
Assay [12] deals with Pseudomonas aeruginosa. As to the kind of experiment: Antibacterial activity against Pseudomonas aeruginosa assessed as zone of inhibition at 2 ug/ml. The conditions noted are these: read-out: DIZ.
Assay [13] relates to Mycobacterium tuberculosis. As to the kind of experiment: Antibacterial activity against drug-sensitive 1 ug/ml Mycobacterium tuberculosis clinical isolate 753 assessed as growth inhibition after 7 days by microtiter plate assay. The conditions noted are these: isolate 753, 168 h.
In assay [14] the test system is Mycobacterium tuberculosis. The assay can be described thus: Antibacterial activity against drug-sensitive 1 ug/ml Mycobacterium tuberculosis clinical isolate 760 assessed as growth inhibition after 7 days by microtiter plate assay. Particulars: isolate 760, 168 h.
In assay [15] the test system is Mycobacterium tuberculosis. The assay can be described thus: Antibacterial activity against drug-sensitive 1 ug/ml Mycobacterium tuberculosis clinical isolate 758 assessed as growth inhibition after 7 days by microtiter plate assay. Particulars: isolate 758, 168 h.
In assay [16] the test system is Mycobacterium tuberculosis. As to the kind of experiment: Antibacterial activity against drug-sensitive 1 ug/ml Mycobacterium tuberculosis clinical isolate 821 assessed as growth inhibition after 7 days by microtiter plate assay. The conditions noted are these: isolate 821, 168 h.
Assay [17] concerns Mycobacterium tuberculosis. The assay can be described thus: Antibacterial activity against drug-sensitive 1 ug/ml Mycobacterium tuberculosis clinical isolate 741 assessed as growth inhibition after 7 days by microtiter plate assay. The conditions noted are these: isolate 741, 168 h.

The term MIC denotes the least concentration at which growth counts as inhibited. Turning to `CCn1cc(C(=O)O)c(=O)c2cc(F)c(N3CCN(CCCO[C@H]4O[C@@H]5O[C@@]6(C)CC[C@H]7[C@H](C)CC[C@@H]([C@H]4C)[C@@]57OO6)CC3)cc21`, the minimal inhibitory concentration (MIC) in assay [1] is 6.21 µM (≈ 4 µg/mL); in the assay on Staphylococcus aureus [3] it was 8 µg/mL (≈ 12.4 µM); in the assay on Salmonella [4], 16 µg/mL (≈ 24.9 µM); in the assay with Pseudomonas aeruginosa [5], 16 µg/mL (≈ 24.9 µM); in the assay with Escherichia coli [6], 16 µg/mL (≈ 24.9 µM); in the assay with Escherichia coli [8] it was 8 µg/mL (≈ 12.4 µM). Further, in [9], the minimum inhibitory concentration (MIC) was found to be 6.21 µM (≈ 4 µg/mL). Also, the zone of inhibition at 2 µg/mL in the assay on Escherichia coli [2], in the assay with Salmonella [7], with Staphylococcus aureus [10], with Escherichia coli [11] and in the assay with Pseudomonas aeruginosa [12] was under 5 mm each time.

Turning to `C[C@H]1[C@@H](OCCCN2CCN(c3cc4c(cc3F)c(=O)c(C(=O)O)cn4-c3ccc(F)cc3)CC2)O[C@@H]2O[C@@]3(C)CC[C@H]4[C@H](C)CC[C@@H]1[C@@]24OO3`, the minimal inhibitory concentration (MIC) in assay [1] is over 5.64 µM; in the assay on Staphylococcus aureus [3] it was 16 µg/mL (≈ 22.5 µM); with Salmonella [4], 16 µg/mL (≈ 22.5 µM); in the assay on Pseudomonas aeruginosa [5], 16 µg/mL (≈ 22.5 µM); with Escherichia coli [6], 16 µg/mL (≈ 22.5 µM); with Escherichia coli [8] it was 4 µg/mL (≈ 5.64 µM). Further, in assay [9], the minimum inhibitory concentration (MIC) was over 5.64 µM. In addition, the zone of inhibition at 2 µg/mL in the assay with Escherichia coli [2] is under 5 mm; in the assay with Salmonella [7], 10 mm; in the assay on Staphylococcus aureus [10], under 5 mm; in the assay with Escherichia coli [11] it was under 5 mm; in the assay on Pseudomonas aeruginosa [12] it was under 5 mm.

`C[C@H]1[C@@H](OCCNC2CCN(c3c(F)cc4c(=O)c(C(=O)O)cn(C5CC5)c4c3Cl)C2)O[C@@H]2O[C@@]3(C)CC[C@H]4[C@H](C)CC[C@@H]1[C@@]24OO3` (some centres undefined): the MIC is 0.092 µM (≈ 0.0622 µg/mL) in [1]; 0.125 µg/mL (≈ 0.185 µM) in [13]; 16 µg/mL (≈ 23.7 µM) in the assay with Staphylococcus aureus [3]; 16 µg/mL (≈ 23.7 µM) with Salmonella [4]; 16 µg/mL (≈ 23.7 µM) in the assay on Pseudomonas aeruginosa [5]; 8 µg/mL (≈ 11.8 µM) in the assay on Escherichia coli [6]. In addition, the MIC is 0.125 µg/mL (≈ 0.185 µM) in assay [14]; 16 µg/mL (≈ 23.7 µM) with Escherichia coli [8]; 0.125 µg/mL (≈ 0.185 µM) in assay [15]; 0.185 µM (≈ 0.125 µg/mL) in assay [9]; 0.25 µg/mL (≈ 0.37 µM) in [16]; 0.125 µg/mL (≈ 0.185 µM) in assay [17]. Besides, the zone of inhibition at 2 µg/mL in the assay on Escherichia coli [2] was 7 mm; in the assay with Salmonella [7], 12 mm; with Staphylococcus aureus [10], under 5 mm; in the assay on Escherichia coli [11] it was 8 mm; with Pseudomonas aeruginosa [12] it was under 5 mm.

For `C[C@H]1[C@@H](OCCN2CCN(c3cc4c(cc3F)c(=O)c(C(=O)O)cn4C3CC3)CC2)O[C@@H]2O[C@@]3(C)CC[C@H]4[C@H](C)CC[C@@H]1[C@@]24OO3`, the MIC in assay [1] was over 6.23 µM; in the assay on Staphylococcus aureus [3] it was 8 µg/mL (≈ 12.5 µM); with Salmonella [4] it was 16 µg/mL (≈ 24.9 µM); in the assay on Pseudomonas aeruginosa [5], 16 µg/mL (≈ 24.9 µM); in the assay with Escherichia coli [6] it was 16 µg/mL (≈ 24.9 µM); in the assay with Escherichia coli [8] it was 8 µg/mL (≈ 12.5 µM). The MIC in assay [9] is over 6.23 µM. Further, the zone of inhibition at 2 µg/mL in the assay on Escherichia coli [2], in the assay on Salmonella [7], in the assay with Staphylococcus aureus [10], in the assay with Escherichia coli [11] and in the assay on Pseudomonas aeruginosa [12] was under 5 mm throughout.

Take `CCn1cc(C(=O)O)c(=O)c2cc(F)c(N3CCN(CCO[C@H]4O[C@@H]5O[C@@]6(C)CC[C@H]7[C@H](C)CC[C@@H]([C@H]4C)[C@@]57OO6)CC3)cc21`: the MIC in assay [1] was over 3.18 µM; with Staphylococcus aureus [3], 8 µg/mL (≈ 12.7 µM); in the assay on Salmonella [4] it was 16 µg/mL (≈ 25.4 µM); in the assay on Pseudomonas aeruginosa [5] it was 16 µg/mL (≈ 25.4 µM); in the assay on Escherichia coli [6], 16 µg/mL (≈ 25.4 µM); in the assay on Escherichia coli [8], 16 µg/mL (≈ 25.4 µM). Moreover, in assay [9], the MIC is over 3.18 µM. The zone of inhibition at 2 µg/mL with Escherichia coli [2], in the assay on Salmonella [7], in the assay with Staphylococcus aureus [10], in the assay on Escherichia coli [11] and with Pseudomonas aeruginosa [12] was under 5 mm in each case.

With `C[C@H]1[C@@H](OCCN2CCN(c3cc4c(cc3F)c(=O)c(C(=O)O)cn4-c3ccc(F)cc3)CC2)O[C@@H]2O[C@@]3(C)CC[C@H]4[C@H](C)CC[C@@H]1[C@@]24OO3`, the MIC was over 2.87 µM in assay [1]; 16 µg/mL (≈ 23 µM) with Staphylococcus aureus [3]; 16 µg/mL (≈ 23 µM) in the assay on Salmonella [4]; 16 µg/mL (≈ 23 µM) in the assay with Pseudomonas aeruginosa [5]; 16 µg/mL (≈ 23 µM) in the assay on Escherichia coli [6]; 8 µg/mL (≈ 11.5 µM) with Escherichia coli [8]. Further, in assay [9], the minimal inhibitory concentration (MIC) is over 2.87 µM. In addition, the zone of inhibition at 2 µg/mL in the assay on Escherichia coli [2], in the assay on Salmonella [7], in the assay with Staphylococcus aureus [10], in the assay with Escherichia coli [11] and in the assay with Pseudomonas aeruginosa [12] was under 5 mm throughout.

`CC1COc2c(N3CCN(C)CC3)c(F)cc3c(=O)c(C(=O)O)cn1c23` (centres undefined) [OFLOXACIN]: the minimal inhibitory concentration (MIC) in assay [1] and in assay [9] was 0.69 µM (≈ 0.249 µg/mL) in each case.
